Where two headings read alike, the source gives them in different places.
Key:
[1] = test system: human T lymphocytes (PBMC); assay: human mixed lymphocyte reaction (MLR); type: cell-based; conditions: 300 nM or 30 nM
Excerpt: Human mixed lymphocyte reaction (MLR). The capacity of 3β,16α-dihydroxy-17-oxoandrostane, 3β,17β-dihydroxy-16-oxoandrostane, 17α-ethynylandrost-5-ene-3β,7β,17β-triol, and 17β-aminoandrost-5-ene-3β-ol to affect antigen specific stimulation in which human T lymphocytes respond to a specific foreign antigen (major histocompatibility complex).
Blood samples were obtained from 3 (2 males, […]) fasting, healthy human volunteers of 23-31 years old. […] The subjects were bled between 9 and 10 AM to limit possible fluctuations in the circulating levels of hormones or cytokines that could have influenced the in vitro responses of their lymphocytes. Peripheral blood mononuclear cells (PBMC) were isolated by centrifugation on Ficoll-Hypaque (density 1.077, Biochrom AG, Berlin, Germany) gradients and resuspended in culture medium (RPMI 1640 supplemented with 2 mM L-glutamine, penicillin (100 U/mL) and streptomycin ([…]) (Invitrogen s.rl., Milan, Italy). Autologous (responder) inactivated plasma was used at 10%. Five hundred thousand responder PBMC (PBMCr) and 500,000 allogeneic irradiated (30 Gy) stimulator PBMC (PBMCs) were mixed at a ratio of 1:1 in 200 μL medium and cultured for 6 days in flat bottom 96 well plates (Nunc, Roskilde, Denmark) at a concentration of 300 nM or 30 nM for each of the 4 compounds. The compounds were dissolved in ethanol and then diluted to the desired concentration with culture medium leading to a final solution containing 0.01% of ethanol. This vehicle was used as control. Controls also included PBMCr and PBMCs cultured separately. During the last 8 hours of the culture period the PBMC were pulsed with […] [^3H] thymidine (Amersham, Milan, Italy). The cells were then harvested and radioactivity incorporation measured with a beta cell counter. The mean cpm of quadruplicate wells was calculated. Proliferation of T cells was expressed as a stimulation index: SI=cpm (PMBCs xPBMCr)/cpm (PBMCr)+cpm (PBMCs). Statistical analysis was performed using the Student's t test. The cpm obtained from quadruplicate of each test compound were compared to proliferative responses obtained in control PBMCr and PBMCs cultured in the presence of the vehicle. Differences were considered significant at p<0.05.

[2] = test system: carrageenan-λ induced pleurisy; assay: carrageenan-λ induced lung (pleural cavity) inflammation; type: in vivo, CD1 male mice; conditions: for number of neutrophils relative to negative control group (set at 100%): exudate 4 h after
Excerpt: Treatment of lung inflammation. Three compounds, 3β,16α-dihydroxy-17-oxoandrostane, 3α,16β,17β-trihydroxyandrostane and 3α,16α,17α-trihydroxyandrostane were used to treat inflammation in mice essentially as described (D. Auci et al., Ann. New York Acad. Sci. 1051:730-742 2005). Five to 8 week old CD1 male mice (Charles River, Calco, Italy) were used for the study. The animals were housed in a controlled environment and provided with standard rodent chow and water. Animal care was in compliance with applicable regulations on protection of animals. Mice were allocated into one of the following groups: (1) mice treated with 2% carrageenan-k in saline (carrageenan-λ treated control group), (2) mice treated with 0.1 mg, 0.01 mg or 0.001 mg 3β,16α-dihydroxy-17-oxoandrostane by subcutaneous (s.c.) injection 24 h and 1 h before carrageenan-λ administration, (3) mice treated with 0.1 mg, 0.01 mg or 0.001 mg of 3α,16α,17α-trihydroxyandrostane by s.c. injection 24 and 1 h before carrageenan; (4) mice treated with 0.1 mg, 0.01 mg or 0.001 mg […],16β,17β-trihydroxyandrostane by s.c. injection 24 h and 1 h before carrageenan-λ administration; (5) mice treated with vehicle (0.1% carboxymethylcellulose, 0.9% saline, 2% tween 80, 0.05% phenol) s.c. 24 h and 1 h before carrageenan-λ administration; (6) mice treated with rabbit anti-mouse polyclonal anti-TNF-α antibody (200 μg) given as an intraperitoneal bolus 24 h and 1 h before carrageenan-λ administration (positive control group); and (7) sham-operated mice that were not treated with carrageenan-λ. Each group consisted of 10 mice. All treatments were given in a final volume of 100 μL. Lung (pleural cavity) inflammation was induced as follows. The mice were anaesthetised with isoflurane and a skin incision was made at the level of the left sixth intercostal space. The underlying muscle was dissected and either 0.1 mL saline (control) or 0.1 mL saline containing 2% λ-carrageenan was injected into the pleural cavity. The carrageenan-λ is a potent inducer of inflammation, which is manifested in this protocol by accumulation of fluid and neutrophils in the pleural cavity. The incision was closed with a suture and the animals were allowed to recover.
At 4 h after the injection of carrageenan-λ, the animals were euthanized by exposure to CO2. The chest was carefully opened and the pleural cavity rinsed with 1 mL of saline solution containing heparin (5 U/mL) and indomethacin (10 μg/mL). The exudate and washing solution were removed by aspiration and the total volume measured. Any exudate contaminated with blood was discarded. The amount of exudate was calculated by subtracting the injected 1 mL volume from the total pleural cavity volume that was recovered. The neutrophils in the exudate were suspended in phosphate-buffer saline and counted with an optical microscope in a Burker's chamber after Trypan Blue staining. The results were analysed by one-way ANOVA followed by a Bonferroni post-hoc test for multiple comparisons. A p-value less than 0.05 was considered significant. For statistical analysis each group was compared to the control group of mice that were challenged with carrageenan-k and received no other treatment.
The table below describes the number of neutrophils from the treated animal groups relative to untreated control animals that were exposed to carrageenan-λ, but not treated with anything else (negative control group). The neutrophil number for the negative control group was set at 100% and other groups were compared to this.

[3] = metabolic stability in liver microsomes, species not stated; conditions: compared with androst-5-ene-3β,17β-diol
Experimental: The protocol was performed as follows. […] (2) Set up samples as follows. […] (4) The internal standard/acetonitrile solution.

[4] = test system: human whole blood; assay: γ-interferon production in human whole blood exposed to LPS; type: cell-based; conditions: 24 hours with LPS; 16α-bromoepiandrosterone at 100 ng/mL
Experimental: Anti-inflammation activity in human cells in vitro. […] The amount of γ-interferon was measured in the growth medium when the cells had been incubated in the presence of LPS for 24 hours.

[5] = test system: lethal amount of bacterial lipopolysaccharide (LPS); assay: lethal shock protocol; type: in vivo, mice; conditions: second assay; oral gavage 24 h before and 1 h after LPS
Experimental: Treatment of lethal inflammation/shock. Two compounds, 16α-bromoepiandrosterone (3β-hydroxy-16α-bromoandrostane-17-one) and 3β,16α-dihydroxy-17-oxoandrostane, were used in a lethal shock protocol. In one protocol, 3 mg of 16α-bromoepiandrosterone was administered to one group of animals by oral gavage, while another group received 3 mg of 16α-bromoepiandrosterone by subcutaneous injection. A group of control animals received a placebo control. In this protocol, the 16α-bromoepiandrosterone was administered to mice at 24 hours before and at 1 hour after administration of a lethal amount of bacterial lipopolysaccharide (LPS). By the end of the observation period, 72 hours after LPS administration, none of the vehicle treated placebo control animals had survived, while 65% of animals that received 16α-bromoepiandrosterone by oral administration survived. 50% of the animals that received 16α-bromoepiandrosterone by subcutaneous injection survived. Animals that survived for 72 hours all recovered from the LPS exposure.
In a second assay, 16α-bromoepiandrosterone or 3β,16α-dihydroxy-17-oxoandrostane was administered to mice by oral gavage at 24 hours before and 1 hour after administration of a lethal amount of LPS. A vehicle treated group of animals was used as the placebo control.

[6] = test system: bone loss after thermal injury; assay: bone loss in thermally-injured mice; type: in vivo; conditions: 20% total body surface area thermal injury
Excerpt: In bone loss conditions, 5-androstene-3β,7β,17β-triol affected the principal bone structures, i.e., cortical and trabecular layers and the growth plate. […] We observed partial protection against loss of bone mineral content as measured by dual X-ray absorptiometry.

[7] = test system: popliteal lymph node cells; assay: reporter antigen popliteal lymph node (PLN) assay; type: in vivo, BALB/C mice; conditions: compound 1.0 and 0.1 mg/day; dexamethasone 5 μg/day
Excerpt: Analysis of immune suppression. Glucocorticoid steroids such as dexamethasone or hydrocortisone are typically immune suppressive and have significant toxicities associated with their use. Immune suppression was examined in a reporter antigen popliteal lymph node assay in mice essentially as previously described (C. Goebel et al., Inflamm. Res., 45(Suppl. 2):S85-S90, 1996; R. Pieters et al., Environmental Health Perspectives 107(Suppl. 5):673-677, 1999). […] In this protocol, the vehicle was 0.1% carboxymethylcellulose, 0.9% saline, 2% tween 80 and 0.05% phenol, which contained 17α-ethynylandrost-5-ene-3β,7β,17β-triol in suspension in drug treated animals. Assessment of activity included (1) measuring suppression of numbers of total lymphocytes, antigen specific IgM, IgG1 and IgG2a antibody secreting cells (ASC) (ELISPOT assay) in popliteal lymph node cells; (2) analysis of cell surface marker (CD4, CD8, CD19, F480, CD80, CD86) expression by flow cytometry of living cells in suspension; and (3) IL-4, TNFα and IFNγ production by lymphocytes in vitro (ELISA).
Groups (n=5 per group) of specific pathogen free BALB/C mice were used. The Positive control group was treated with vehicle (oral gavage) and 5 μg/day dexamethasone by subcutaneous injection to induce immune suppression. Vehicle control animals (negative control) were treated with vehicle alone (oral gavage). One group of animals was treated with 17α-ethynylandrost-5-ene-3β,7β,17β-triol at 0.1 mg/day by oral gavage. Another group was treated with 1 mg/day of 17α-ethynylandrost-5-ene-3β,7β,17β-triol was administered to the animals oral gavage. The results were analyzed by two-tailed Student's t-test with equal variance. The animals were injected in the right hind footpad with 50 μL of freshly prepared sensitizing dose of TNP-OVA. […] Single cell suspensions were prepared, resuspended in 1 mL PBS-BSA (1%) and counted. Cell numbers, IL-4, IL-5 and IFNγ were measured.

[8] = test system: MG-63 cells; assay: pilot studies of dexamethasone in MG-63 cells; type: cell-based; conditions: Homo sapiens
Excerpt: The capacity of compounds including 5-androstene-3β,7β,17β-triol, 17α-ethynyl-5-androstene-3β,7β,17β-triol and 4-estrene-3α,17β-diol to reverse adverse effects of glucocorticoids in bone growth was shown in the human MG-63 osteosarcoma cell line. MG-63 cells are osteoblasts, which are cells that mediate bone growth. Theis cell line has been used extensively to study bone biology and to characterize the biological activity of compounds for treatment of bone loss conditions (e.g., B. D. Boyan et al., J. Biol. Chem., 264(20):11879-11886, 1989; L. C. Hofbauer et al., Endocrinology, 140(10):4382-4389, 1999). Adverse toxicities associated with elevated glucocorticoid levels include a decrease in the production of IL-6 and IL-8 by osteoblasts, including the MG-63 cell line, and an increase in the expression of the 11β-hydroxysteroid dehydrogenase type 1 enzyme (11β-HSD). Increased 11β-hydroxysteroid dehydrogenase type 1 enzyme results in increased levels of endogenous glucocorticoid activity by converting endogenous cortisone to the active cortisol, which inhibits bone growth. The 11β-HSD enzyme is expressed in liver, adipose tissue, brain and bone tissues. Cortisol generated by 11β-HSD-1 contributes to osteoporosis, insulin resistance, type 2 diabetes, dyslipidemia, obesity, central nervous system disorders such as stroke, neuron death, depression and Parkinson Disease. […]

[9] = test system: NF-κB; assay: inhibition of NF-κB activation in NF-κB-bla THP-1 cells after LPS stimulation; type: cell-based, human; conditions: Homo sapiens, THP-1; LPS stimulation; 50% of the compound's maximum inhibition; averages; read-out: IC50
Method in brief: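 THP-1 monocytes stably carrying an NF-κB response element–driven β-lactamase reporter, plated about 24 h before activation with LPS at 0.2 ng/mL. Reporter activity measured by FRET ratiometric detection; values are averages of usually 2-4 runs per compound.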

SMILES: C[C@]12CC[C@H](O)CC1CC[C@@H]1[C@@H]2CC[C@]2(C)C(=O)[C@H](O)C[C@@H]12 (stereo partly drawn) [3β,16α-dihydroxy-17-oxoandrostane]
- immune suppression (inhibition of the MLR) [1]: not appreciably immune suppressive
- number of neutrophils relative to negative control group (set at 100%) ([2]; 0.001 mg s.c. 24 h and 1 h before carrageenan-λ): 97%
- number of neutrophils relative to negative control group (set at 100%) ([2]; 0.01 mg s.c. 24 h and 1 h before carrageenan-λ): 73%
- volume of pleural exudate ([2]; 0.1 mg dose s.c.): significantly reduced
- number of neutrophils relative to negative control group (set at 100%) ([2]; 0.1 mg s.c. 24 h and 1 h before carrageenan-λ): 73%
- potency compared with polyclonal anti-TNF-α antibody control ([2]; s.c.): less potent
- rate of metabolism by microsomes [3]: metabolized by microsomes at a rate similar to the androst-5-ene-3β,17β-diol reference compound
- production of γ-interferon [4]: Reduced production
- survival 72 hours after LPS [5]: 50%

SMILES: C[C@]12CC[C@H]3[C@@H]([C@@H](O)C=C4C[C@@H](O)CC[C@@]43C)[C@@H]1CC[C@@H]2O [androst-5-ene-3β,7β,17β-triol]
- femur ash weight vs vehicle-treated burned mice [6]: significantly (p<0.01) greater
- loss of cortical and trabecular bone mass and suppression of chondrocyte proliferation [6]: significantly (p<0.01) prevented

SMILES: C[C@@H]1C[C@H]2[C@@H]3CCC4=CC(=O)C=C[C@]4(C)[C@@]3(F)[C@@H](O)C[C@]2(C)[C@@]1(O)C(=O)CO [dexamethasone, reference compound]
- IFNγ, IL-4 and IL-5 levels compared to vehicle control [7]: reduced
- IC50 ([8]; read-out: IC50 for inhibition of IL-6 from MG-63 cells): 10 nM
- IC50 ([8]; read-out: IC50 for inhibition of growth of MG-63 cells): 15.3 nM
- IC50 [9]: 0.47 nM

Reference: patent US20080221074A1, “Drug Screen and Treatment Method” (priority 2006, published 2008)
